Data reported in patent US4959375A, “Piperidine derivatives useful as 5-HT3 antagonists” (John Wyeth & Brothers Limited, priority 1988, dated 1990).

Molecular target: T1, 5-HT3 receptors (Oryctolagus cuniculus, UniProt A0A5F9C9J3)
T1 construct: 5-HT3 receptors present on sympathetic nerve terminals in the heart; from tissue; host or cells: isolated right atrium of the rabbit heart
T1 sequence (A0A5F9C9J3 1-494): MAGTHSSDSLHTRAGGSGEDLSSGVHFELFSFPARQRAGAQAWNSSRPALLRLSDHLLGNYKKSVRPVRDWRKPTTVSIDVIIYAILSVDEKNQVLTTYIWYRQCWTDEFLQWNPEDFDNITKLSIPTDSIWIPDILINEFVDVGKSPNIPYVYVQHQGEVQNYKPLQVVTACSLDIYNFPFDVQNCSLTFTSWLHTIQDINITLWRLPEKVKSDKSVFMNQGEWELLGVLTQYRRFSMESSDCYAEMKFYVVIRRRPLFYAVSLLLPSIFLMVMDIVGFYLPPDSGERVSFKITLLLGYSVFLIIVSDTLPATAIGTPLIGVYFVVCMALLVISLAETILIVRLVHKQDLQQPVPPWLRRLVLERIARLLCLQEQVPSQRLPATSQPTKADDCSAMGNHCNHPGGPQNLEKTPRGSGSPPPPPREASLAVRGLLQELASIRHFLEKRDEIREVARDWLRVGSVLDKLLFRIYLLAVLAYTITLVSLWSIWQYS
Assay: 5-HT3 antagonistic activity in the isolated right atrium of the rabbit heart
Conditions: chronotropic response to 10^-5 M 5-HT, read-out: -log IC50 (IC50 is the concentration of antagonist which reduces the chronotropic response to 10^-5 M 5-HT by 50%) (converted)
Method: The compounds of the invention are tested for 5-HT3 antagonistic activity in the isolated right atrium of the rabbit heart based upon the method of Fozard J. R., Naunyn Schmiedeberg's Arch. Pharmacol., 1984, 326, 36-44. This procedure relies upon the ability of 5-HT to stimulate 5-HT3 receptors present on sympathetic nerve terminals in the heart, causing release of noradrenaline which evokes an increase in the spontaneous rate of beating. The antagonist potency is expressed as -log IC50 (where IC50 is the concentration of antagonist which reduces the chronotropic response to 10^--5 M 5-HT by 50%).

Compound	IC50 [nM]
CN(C)C1CCCN(C(=O)c2c[nH]c3ccccc23)C1 (centres unmarked) [Example 1, 3-Dimethylamino-1-[[(1H)-indol 3 yl]carbonyl]piperidine]	20
CN(C)C1CCCN(C(=O)c2n[nH]c3ccccc23)C1 (centres unmarked) [Example 4, 3-Dimethylamino-1-[[(1H)-indazol 3 yl]carbonyl]piperidine]	7.94
